Measurements reported in the NIST ThermoML archive (doi:10.1016/j.fluid.2018.10.006).
Where “and” joins values, the source holds several entries; their conditions need not be identical. Identical values can stand only once. Numbers after ± are expanded uncertainties.

Conditions: Fluid (supercritical or subcritical phases), Coaxial cylinder method

CCCCCC [hexane]
thermal conductivity
Conditions | 510.36 K | 511.55 K
900 kPa | – | 0.03854 ± 0.002 W/m/K
1000 kPa | – | 0.03823 ± 0.002 W/m/K
1100 kPa | – | 0.03832 ± 0.002 W/m/K
1200 kPa | – | 0.03859 ± 0.002 W/m/K
1300 kPa | – | 0.03877 ± 0.002 W/m/K
1400 kPa | – | 0.03895 ± 0.002 W/m/K
1500 kPa | – | 0.03914 ± 0.002 W/m/K
1600 kPa | – | 0.03932 ± 0.002 W/m/K
1700 kPa | – | 0.0397 ± 0.002 W/m/K
1800 kPa | – | 0.04008 ± 0.0021 W/m/K
1900 kPa | – | 0.04047 ± 0.0021 W/m/K
2000 kPa | – | 0.04087 ± 0.0021 W/m/K
2100 kPa | – | 0.04127 ± 0.0021 W/m/K
2200 kPa | – | 0.0419 ± 0.0021 W/m/K
2300 kPa | – | 0.04254 ± 0.0022 W/m/K
2400 kPa | – | 0.04342 ± 0.0022 W/m/K
2462 kPa | – | 0.04388 ± 0.0022 W/m/K
2466 kPa | – | 0.04388 ± 0.0022 W/m/K
2500 kPa | – | 0.04434 ± 0.0022 W/m/K
2600 kPa | – | 0.0453 ± 0.0023 W/m/K
2700 kPa | – | 0.04656 ± 0.0023 W/m/K
2800 kPa | – | 0.04846 ± 0.0024 W/m/K
2900 kPa | – | 0.05075 ± 0.0025 W/m/K
2973 kPa | – | 0.05292 ± 0.0026 W/m/K
2988 kPa | – | 0.05356 ± 0.0026 W/m/K
3050 kPa | – | 0.05558 ± 0.0027 W/m/K
3065 kPa | – | 0.05634 ± 0.0027 W/m/K
3084 kPa | – | 0.05785 ± 0.0028 W/m/K
3096 kPa | – | 0.05908 ± 0.0029 W/m/K
3103 kPa | – | 0.05968 ± 0.0029 W/m/K
3110 kPa | – | 0.06064 ± 0.003 W/m/K
3116 kPa | – | 0.06128 ± 0.003 W/m/K
3130 kPa | – | 0.06341 ± 0.0032 W/m/K
3140 kPa | – | 0.06508 ± 0.0033 W/m/K
3145 kPa | – | 0.06587 ± 0.0033 W/m/K
3150 kPa | – | 0.06678 ± 0.0033 W/m/K
3155 kPa | – | 0.06787 ± 0.0034 W/m/K
3160 kPa | – | 0.06879 ± 0.0034 W/m/K
3165 kPa | – | 0.0699 ± 0.0034 W/m/K
3168 kPa | – | 0.07058 ± 0.0034 W/m/K
3170 kPa | – | 0.07104 ± 0.0034 W/m/K
3173 kPa | – | 0.0718 ± 0.0034 W/m/K
3175 kPa | – | 0.07228 ± 0.0035 W/m/K
3180 kPa | – | 0.07336 ± 0.0035 W/m/K
3183 kPa | – | 0.07404 ± 0.0035 W/m/K
3185 kPa | – | 0.07447 ± 0.0035 W/m/K
3187 kPa | – | 0.07504 ± 0.0035 W/m/K
3190 kPa | – | 0.07571 ± 0.0035 W/m/K
3192 kPa | – | 0.07616 ± 0.0035 W/m/K
3193 kPa | – | 0.07629 ± 0.0036 W/m/K
3195 kPa | – | 0.07668 ± 0.0036 W/m/K
3200 kPa | – | 0.07761 ± 0.0036 W/m/K
3205 kPa | – | 0.07821 ± 0.0037 W/m/K
3212 kPa | – | 0.07869 ± 0.0039 W/m/K
3220 kPa | – | 0.07869 ± 0.0039 W/m/K
3225 kPa | – | 0.07855 ± 0.0039 W/m/K
3230 kPa | 0.07155 ± 0.0034 W/m/K | 0.07767 ± 0.0038 W/m/K
3232 kPa | 0.07138 ± 0.0034 W/m/K | –
3234 kPa | 0.07128 ± 0.0034 W/m/K | –
3235 kPa | – | 0.07701 ± 0.0037 W/m/K
3236 kPa | 0.07122 ± 0.0033 W/m/K | –
3238 kPa | 0.07122 ± 0.0033 W/m/K | –
3240 kPa | – | 0.07636 ± 0.0037 W/m/K
3242 kPa | 0.07105 ± 0.0033 W/m/K | –
3245 kPa | 0.07105 ± 0.0033 W/m/K | 0.07571 ± 0.0036 W/m/K
3248 kPa | 0.07105 ± 0.0033 W/m/K | –
3250 kPa | 0.07072 ± 0.0033 W/m/K | 0.07508 ± 0.0035 W/m/K
3252 kPa | 0.07072 ± 0.0033 W/m/K | –
3254 kPa | 0.07072 ± 0.0033 W/m/K | –
3255 kPa | – | 0.07386 ± 0.0034 W/m/K
3256 kPa | 0.07039 ± 0.0033 W/m/K | –
3258 kPa | 0.07039 ± 0.0033 W/m/K | –
3260 kPa | 0.07039 ± 0.0033 W/m/K | 0.07266 ± 0.0034 W/m/K
3265 kPa | 0.0704 ± 0.0033 W/m/K | 0.07151 ± 0.0033 W/m/K
3270 kPa | 0.07008 ± 0.0033 W/m/K | 0.07151 ± 0.0033 W/m/K
3275 kPa | – | 0.07209 ± 0.0034 W/m/K
3280 kPa | 0.06975 ± 0.0033 W/m/K | 0.07209 ± 0.0034 W/m/K
3285 kPa | – | 0.07209 ± 0.0034 W/m/K
3290 kPa | 0.0696 ± 0.0033 W/m/K | 0.07267 ± 0.0034 W/m/K
3295 kPa | – | 0.07267 ± 0.0034 W/m/K
3300 kPa | 0.06944 ± 0.0033 W/m/K | 0.07151 ± 0.0033 W/m/K
3305 kPa | – | 0.07151 ± 0.0033 W/m/K
3310 kPa | 0.06944 ± 0.0033 W/m/K | 0.07151 ± 0.0033 W/m/K
3315 kPa | – | 0.07095 ± 0.0033 W/m/K
3320 kPa | 0.06912 ± 0.0032 W/m/K | –
3325 kPa | – | 0.07095 ± 0.0033 W/m/K
3330 kPa | – | 0.07095 ± 0.0033 W/m/K
3335 kPa | – | 0.07144 ± 0.0033 W/m/K
3340 kPa | 0.06881 ± 0.0032 W/m/K | 0.07144 ± 0.0033 W/m/K
3345 kPa | – | 0.07144 ± 0.0033 W/m/K
3350 kPa | 0.0685 ± 0.0032 W/m/K | 0.07144 ± 0.0033 W/m/K
3360 kPa | 0.0685 ± 0.0032 W/m/K | 0.07088 ± 0.0033 W/m/K
3365 kPa | – | 0.07088 ± 0.0033 W/m/K
3370 kPa | 0.0685 ± 0.0032 W/m/K | 0.07033 ± 0.0033 W/m/K
3375 kPa | – | 0.07033 ± 0.0033 W/m/K
3380 kPa | 0.0685 ± 0.0032 W/m/K | –
3385 kPa | – | 0.07033 ± 0.0033 W/m/K
3392 kPa | 0.06834 ± 0.0032 W/m/K | –
3395 kPa | – | 0.07033 ± 0.0033 W/m/K
3400 kPa | – | 0.07033 ± 0.0033 W/m/K
3410 kPa | – | 0.07088 ± 0.0033 W/m/K
3450 kPa | 0.06819 ± 0.0032 W/m/K | 0.07081 ± 0.0033 W/m/K
3455 kPa | – | 0.07081 ± 0.0033 W/m/K
3460 kPa | – | 0.07062 ± 0.0033 W/m/K and 0.07064 ± 0.0033 W/m/K
3470 kPa | – | 0.07062 ± 0.0033 W/m/K
3480 kPa | – | 0.07051 ± 0.0033 W/m/K
3490 kPa | – | 0.07054 ± 0.0033 W/m/K
3500 kPa | 0.0685 ± 0.0032 W/m/K | 0.07026 ± 0.0033 W/m/K
3520 kPa | 0.0686 ± 0.0032 W/m/K | –
3540 kPa | 0.0686 ± 0.0032 W/m/K | –
3550 kPa | – | 0.0701 ± 0.0033 W/m/K
3560 kPa | 0.0686 ± 0.0032 W/m/K | –
3580 kPa | 0.0686 ± 0.0032 W/m/K | –
3600 kPa | 0.06851 ± 0.0032 W/m/K | 0.07 ± 0.0033 W/m/K
3620 kPa | 0.06851 ± 0.0032 W/m/K | –
3640 kPa | 0.06854 ± 0.0032 W/m/K | –
3650 kPa | 0.06857 ± 0.0032 W/m/K | 0.06992 ± 0.0033 W/m/K
3670 kPa | 0.0686 ± 0.0032 W/m/K | –
3680 kPa | 0.06861 ± 0.0032 W/m/K | –
3700 kPa | 0.06864 ± 0.0032 W/m/K | 0.06992 ± 0.0033 W/m/K
3720 kPa | 0.06873 ± 0.0032 W/m/K | –
3740 kPa | 0.06883 ± 0.0032 W/m/K | –
3750 kPa | 0.06886 ± 0.0032 W/m/K | 0.06969 ± 0.0033 W/m/K
3800 kPa | 0.06913 ± 0.0032 W/m/K | 0.06964 ± 0.0033 W/m/K
3810 kPa | 0.06917 ± 0.0032 W/m/K | –
3820 kPa | 0.06922 ± 0.0032 W/m/K | –
3830 kPa | 0.06922 ± 0.0032 W/m/K | –
3840 kPa | 0.06919 ± 0.0032 W/m/K | –
3850 kPa | – | 0.06975 ± 0.0033 W/m/K
3860 kPa | 0.06928 ± 0.0032 W/m/K | –
3900 kPa | – | 0.06992 ± 0.0033 W/m/K
3950 kPa | – | 0.06992 ± 0.0033 W/m/K
3970 kPa | 0.06973 ± 0.0033 W/m/K | –
3980 kPa | 0.06964 ± 0.0033 W/m/K | –
4000 kPa | – | 0.06992 ± 0.0033 W/m/K
4010 kPa | 0.06977 ± 0.0033 W/m/K | –
4100 kPa | – | 0.07009 ± 0.0033 W/m/K
4150 kPa | – | 0.07009 ± 0.0033 W/m/K
4300 kPa | – | 0.0702 ± 0.0033 W/m/K
4400 kPa | – | 0.07048 ± 0.0033 W/m/K
4500 kPa | – | 0.07048 ± 0.0033 W/m/K
4600 kPa | – | 0.07077 ± 0.0033 W/m/K
4700 kPa | – | 0.07105 ± 0.0033 W/m/K
4800 kPa | – | 0.07105 ± 0.0033 W/m/K
